System: dogs with naturally occurring keratoconjunctivitis sicca
Experiment: Schirmer tear quantification in dogs treated topically with tacrolimus suspension
Format: in vivo, dog
Settings: topical administration to the eye
Excerpt: In the present invention, tacrolimus is typically administered topically as an aqueous ophthalmic suspension that can be in the form of drops or an ointment. While the particular mixture and efficacious concentration of tacrolimus can be varied, one such suspension used in the treatment of a number of dogs included the following: i) Approximately 0.02 percent weight/volume tacrolimus crystals, ii) Approximately 0.2 percent weight/volume hydroxypropyl methylcellulose, iii) Approximately 0.4 percent weight/volume lactose, and iv) Sterile, deionized water mixed with the first three ingredients in an amount sufficient to achieve the above-noted concentrations. The following examples illustrate the effectiveness of the treatment method of the present invention. Specifically, eleven different dogs of varying breeds and ages were treated using the above solution for treatment periods ranging from 20-84 days. The eleven dogs had naturally occurring keratoconjunctivitis sicca. The subject dogs received one drop of the above-described tacrolimus-based suspension topically in the eye, twice a day. Prior to therapy, tear production was measured using standard Schirmer tear quantification. Corneal fibrosis, vascularization and pigmentation were measured using slit lamp biomicroscopy and fundus reflection during indirect ophthalmoscopy. […]

C=CC[C@@H]1/C=C(\C)C[C@H](C)C[C@H](OC)[C@H]2O[C@@](O)(C(=O)C(=O)N3CCCC[C@H]3C(=O)O[C@H](/C(C)=C/[C@@H]3CC[C@@H](O)[C@H](OC)C3)[C@H](C)[C@@H](O)CC1=O)[C@H](C)C[C@@H]2OC [tacrolimus, Tacrolimus]
effect on lacrimal gland tearing: increases lacrimal gland tearing
